Laboratory results as given in patent US9133199B2, “Pyrimidine derivatives as protein kinase inhibitors” (Cyclacel Limited, priority 2007, dated 2015).
Where two headings read alike, the source gives them in different places.

Experiments:
Assay type in all cases: biochemical
[1] = biological target: PLK2 (Homo sapiens (Human), UniProt Q9NYY3); assay: PLK selectivity: PLK2 inhibition; conditions: for PLK2 IC50/PLK1 IC50: selectivity ratio
[2] = biological target: PLK3 (Homo sapiens (Human), UniProt Q9H4B4); assay: PLK selectivity: PLK3 inhibition; conditions: for PLK3 IC50/PLK1 IC50: selectivity ratio
[3] = biological target: human PLK1 (Homo sapiens (Human), UniProt P53350); assay: PLK1 protein kinase assay (CDC25C phosphorylation, [γ-32P]-ATP)
Chain of human PLK1 (P53350 whole entry): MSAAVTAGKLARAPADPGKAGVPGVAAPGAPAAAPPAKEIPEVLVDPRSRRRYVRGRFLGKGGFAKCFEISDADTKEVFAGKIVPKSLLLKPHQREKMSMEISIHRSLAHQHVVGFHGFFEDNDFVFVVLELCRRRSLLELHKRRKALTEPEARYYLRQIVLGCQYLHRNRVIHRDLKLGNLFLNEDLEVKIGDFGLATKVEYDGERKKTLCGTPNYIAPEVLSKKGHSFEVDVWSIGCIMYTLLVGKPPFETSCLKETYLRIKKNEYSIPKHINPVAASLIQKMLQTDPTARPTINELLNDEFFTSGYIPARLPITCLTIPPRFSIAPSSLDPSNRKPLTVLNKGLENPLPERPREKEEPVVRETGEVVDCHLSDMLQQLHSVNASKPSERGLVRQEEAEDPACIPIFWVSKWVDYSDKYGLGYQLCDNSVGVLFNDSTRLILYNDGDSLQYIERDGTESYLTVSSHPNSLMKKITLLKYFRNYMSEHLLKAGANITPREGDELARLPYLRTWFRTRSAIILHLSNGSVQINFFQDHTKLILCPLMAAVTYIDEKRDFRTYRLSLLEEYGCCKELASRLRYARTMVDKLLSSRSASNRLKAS

Chain of PLK2 (Q9NYY3 whole entry): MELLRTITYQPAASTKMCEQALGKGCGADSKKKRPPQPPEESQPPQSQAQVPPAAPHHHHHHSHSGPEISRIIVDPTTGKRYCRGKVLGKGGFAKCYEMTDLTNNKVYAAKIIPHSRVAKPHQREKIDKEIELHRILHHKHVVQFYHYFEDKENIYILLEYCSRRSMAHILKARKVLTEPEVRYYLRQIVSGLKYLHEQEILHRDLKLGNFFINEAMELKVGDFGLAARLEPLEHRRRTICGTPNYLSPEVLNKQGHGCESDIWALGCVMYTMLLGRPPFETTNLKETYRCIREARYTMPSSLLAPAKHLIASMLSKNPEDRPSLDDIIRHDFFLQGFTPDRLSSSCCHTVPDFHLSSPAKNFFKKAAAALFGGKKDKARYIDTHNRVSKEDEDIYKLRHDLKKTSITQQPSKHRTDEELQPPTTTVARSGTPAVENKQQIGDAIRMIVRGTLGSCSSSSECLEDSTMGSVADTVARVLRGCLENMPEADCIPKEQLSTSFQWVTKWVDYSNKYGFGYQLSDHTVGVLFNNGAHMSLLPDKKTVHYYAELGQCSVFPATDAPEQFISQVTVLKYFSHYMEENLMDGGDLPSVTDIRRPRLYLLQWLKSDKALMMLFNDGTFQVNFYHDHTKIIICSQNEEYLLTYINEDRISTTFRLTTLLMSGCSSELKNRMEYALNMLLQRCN
Chain of PLK3 (Q9H4B4 whole entry): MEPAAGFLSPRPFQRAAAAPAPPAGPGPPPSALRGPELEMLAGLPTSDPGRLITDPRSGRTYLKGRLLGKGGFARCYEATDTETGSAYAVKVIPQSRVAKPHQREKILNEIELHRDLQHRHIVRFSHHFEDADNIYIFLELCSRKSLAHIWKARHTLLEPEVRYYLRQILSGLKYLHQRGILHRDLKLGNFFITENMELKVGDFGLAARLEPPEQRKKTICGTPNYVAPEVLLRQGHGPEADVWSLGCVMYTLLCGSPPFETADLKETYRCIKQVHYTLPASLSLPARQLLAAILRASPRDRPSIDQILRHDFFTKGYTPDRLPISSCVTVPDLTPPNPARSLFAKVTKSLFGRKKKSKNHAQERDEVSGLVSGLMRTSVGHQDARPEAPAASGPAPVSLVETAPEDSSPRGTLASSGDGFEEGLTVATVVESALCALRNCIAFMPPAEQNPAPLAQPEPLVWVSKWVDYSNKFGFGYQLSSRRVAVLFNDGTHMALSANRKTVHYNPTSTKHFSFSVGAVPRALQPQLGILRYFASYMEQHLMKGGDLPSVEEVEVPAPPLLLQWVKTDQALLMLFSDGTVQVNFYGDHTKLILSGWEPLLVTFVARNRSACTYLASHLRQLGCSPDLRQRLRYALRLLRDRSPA

SMILES | IC50 ([3]; Table 2) [nM] | PLK2 IC50/PLK1 IC50 [1] | PLK3 IC50/PLK1 IC50 [2] | further results
COc1cc(C(=O)NC2CCN(C)CC2)ccc1Nc1ncc2c(n1)N(C1CCCC1)CC1(CC1)C(=O)N2C [WO 2007/095188 [I-76], reference compound] |  | 6 | 26 | 
COc1cc(C(=O)NC2CCC(N3CCCN(Cc4ccccc4)CC3)CC2)ccc1Nc1ncc2c(n1)N(C1CCCC1)CC1(CC1)C(=O)N2C (stereo not shown) [Compound 383, N-(4-(4-benzyl-1,4-diazepan-1-yl)cyclohexyl)-4-(9′-cyclopentyl-5′-methyl-6′-oxo-5′,6′,8′,9′-tetrahydrospiro[cyclopropane-1,7′-pyrimido[4,5-b][1,4]diazepine]-2′-ylamino)-3-methoxybenzamide] |  |  |  | IC50 ([3]; Table 3, read-out: PLK 1 IC50): < 100 nM
COc1cc(C(=O)NC2CCN(C)CC2)ccc1Nc1ncc2c(n1)N(C(C)C)CC1(CC1)C(=O)N2C [Compound 99, 4-(9-Isopropyl-5-methyl-6-oxo-6,7,8,9-tetrahydro-5H-spiro[pyrimido[4,5-b] [1,4]diazepin-3,1′-cyclopropane]-2-ylamino)-3-methoxy-N-(1-methyl-piperidin-4-yl)-benzamide] | < 1000 |  |  | 
COc1cc(C(=O)NC2CCN(C)CC2)ccc1Nc1ncc2c(n1)N(C1CCCC1)CC1(CCC1)C(=O)N2C [WO 2007/095188 [I-64], reference compound] |  | 17 | 67 | 
COc1cc(C(=O)N[C@H]2CC[C@@H](N3CCOCC3)CC2)ccc1Nc1ncc2c(n1)N(C1CCCC1)CC1(CC1)C(=O)N2C [Compound 391, 4-(9′-cyclopentyl-5′-methyl-6′-oxo-5′,6′,8′,9′-tetrahydrospiro[cyclopropane-1,7′-pyrimido[4,5-b][1,4]diazepine]-2′-ylamino)-3-methoxy-N-((cis)-4-morpholinocyclohexyl)benzamide] |  |  |  | IC50 ([3]; Table 3, read-out: PLK 1 IC50): 100 to 1000 nM
COc1cc(C(=O)NC2CN3CCC2CC3)ccc1Nc1ncc2c(n1)N(C1CCCC1)CC1(CCC1)C(=O)N2C (racemic) [Compound 218, (±)-4-(9′-cyclopentyl-5′-methyl-6′-oxo-5′,6′,8′,9′-tetrahydrospiro[cyclobutane-1,7′-pyrimido[4,5-b][1,4]diazepine]-2′-ylamino)-3-methoxy-N-(quinuclidin-3-yl)benzamide] |  | 35 | 330 | selectivity for PLK1 versus PLK2 compared to compound [I-4] ([1]; relative to [I-4]): 7 fold; selectivity for PLK1 versus PLK2 compared to compound [I-64] of WO 07/095,188 ([1]; relative to [I-64]): twice as selective; selectivity for PLK1 versus PLK2 compared to compound [I-76] ([1]; relative to [I-76]): ~6 fold; selectivity for PLK1 versus PLK3 compared to compound [I-4] ([2]; relative to [I-4]): 5 fold; selectivity for PLK1 versus PLK3 compared to compound [I-64] ([2]; relative to [I-64]): 5 fold; selectivity for PLK1 versus PLK3 compared to compound [I-76] ([2]; relative to [I-76]): ~12 fold
CN1C(=O)CCN(C2CCCC2)c2nc(NCc3ccsc3)ncc21 [Compound 106, 9-Cyclopentyl-5-methyl-2-[(thiophen-3-ylmethyl)-amino]-5,7,8,9-tetrahydro-pyrimido[4,5-b][1,4]di-azepin-6-one] | < 1000 |  |  | 

Continued, in another order:

IC50 ([3]; Table 2) [nM] | SMILES | PLK2 IC50/PLK1 IC50 [1] | PLK3 IC50/PLK1 IC50 [2] | further results
< 100 | CCN(CC)CCNC(=O)c1ccc(Nc2ncc3c(n2)N(CC2CC2)CCC(=O)N3C)c(OC)c1 [Compound 240, 4-(9-Cyclopropyl-methyl-5-methyl-6-oxo-6,7,8,9-tetrahydro-5H-pyrimido[4,5-b] [1,4]diazepin-2-ylamino)-N-(2-diethylamino-ethyl)-3-methoxy-benzamide] |  |  | 
< 1000 | COc1cc(C(=O)NC2c3ccccc3C[C@H]2O)ccc1Nc1ncc2c(n1)N(C1CCCC1)CC1(CC1)C(=O)N2C (stereo partly drawn) [Compound 184, 4-(9-Cyclopentyl-5-methyl-6-oxo-6,7,8,9-tetrahydro-5H-spiro[pyrimido[4,5-b] [1,4]diazepin-3,1′-cyclopropane]-2-ylamino)-N-((1S,2R)-2-hydroxy-indan-1-yl)-3-methoxy-benzamide] |  |  | 
< 1000 | COc1cc(C(=O)NCC2CCCCN2C)ccc1Nc1ncc2c(n1)N(C1CCCC1)CCC(=O)N2C (stereo not shown) [Compound 202, 4-(9-Cyclopentyl-5-methyl-6-oxo-6,7,8,9-tetrahydro-5H-pyrimido[4,5-b] [1,4]diazepin-2-ylamino)-3-methoxy-N-(1-methyl-piperidin-2-ylmethyl)-benzamide] |  |  | 
